For test [1], the target named is T1, human recombinant GR (Homo sapiens, UniProt P04150).
T1 construct: purchased PanVera P2812
T1 sequence (P04150 1-777): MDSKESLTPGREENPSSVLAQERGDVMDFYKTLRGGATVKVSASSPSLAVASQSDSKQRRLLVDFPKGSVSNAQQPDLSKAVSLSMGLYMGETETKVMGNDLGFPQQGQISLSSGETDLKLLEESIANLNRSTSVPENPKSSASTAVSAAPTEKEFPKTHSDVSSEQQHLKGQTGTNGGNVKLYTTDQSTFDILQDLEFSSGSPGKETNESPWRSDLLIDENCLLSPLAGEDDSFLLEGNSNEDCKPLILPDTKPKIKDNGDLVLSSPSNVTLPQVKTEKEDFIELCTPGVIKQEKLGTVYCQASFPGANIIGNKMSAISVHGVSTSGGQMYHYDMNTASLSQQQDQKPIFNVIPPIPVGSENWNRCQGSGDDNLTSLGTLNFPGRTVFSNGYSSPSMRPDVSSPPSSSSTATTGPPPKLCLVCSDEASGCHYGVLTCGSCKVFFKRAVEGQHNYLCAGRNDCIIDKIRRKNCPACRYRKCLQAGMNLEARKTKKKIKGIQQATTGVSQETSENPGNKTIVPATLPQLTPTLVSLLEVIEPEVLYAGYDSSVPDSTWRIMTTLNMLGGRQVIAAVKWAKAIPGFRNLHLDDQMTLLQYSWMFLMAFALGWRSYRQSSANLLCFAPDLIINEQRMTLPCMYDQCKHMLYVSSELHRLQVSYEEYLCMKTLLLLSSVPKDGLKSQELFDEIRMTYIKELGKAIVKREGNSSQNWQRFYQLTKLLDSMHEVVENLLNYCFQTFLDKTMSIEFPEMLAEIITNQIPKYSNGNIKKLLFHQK
Kind of test: Human glucocorticoid receptor (GR) fluorescence polarisation (FP) binding assay. The settings on record: human recombinant GR, fluorescence polarisation binding assay; read-out: GR binding. In short, it runs like this:
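Competition fluorescence polarisation: 0.5 nM GS Red labelled glucocorticoid and 1 nM recombinant human GR with 8-point half-log compound series, 1% DMSO, 4 h room temperature, potassium phosphate pH 7.4 buffer with molybdate, EDTA, DTT. Affinity derived from the drop in polarisation, normalised to blank wells.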

Test [2] has as its system induction of TAT by dexamethasone in HepG2 cells. The test is described as follows: HepG2 tyrosine aminotransferase (TAT) assay. Format: cell-based, human. The settings on record: HepG2 cells, challenge of 100 nM dexamethasone; Ki from IC50 by Cheng and Prusoff equation.

Bounds are passed on as bounds.

These results are taken from patent US12226412B2, “Heteroaryl-ketone fused azadecalin glucocorticoid receptor modulators” (Corcept Therapeutics, Inc., priority 2012, dated 2025).

Turning to `Cc1ccnc(C(=O)[C@]23Cc4cnn(-c5ccc(F)cc5)c4C=C2CCN(S(=O)(=O)c2cn[nH]c2C)C3)c1` [Example 11BD, (R)-(1-(4-fluorophenyl)-6-((5-methyl-1H-pyrazol-4-yl)sulfonyl)-4,4a,5,6,7,8-hexahydro-1H-pyrazolo[3,4-g]isoquinolin-4a-yl)(4-methylpyridin-2-yl)methanone], the Ki was below 0.5 nM in test [1] and 20 to 100 nM in test [2].
The matching figures for `O=C(c1nccs1)[C@]12Cc3cnn(-c4ccc(F)cc4)c3C=C1CCN(S(=O)(=O)c1cc(F)c(F)c(F)c1)C2` [Example 12J, (R)-(1-(4-fluorophenyl)-6-((3,4,5-trifluorophenyl)sulfonyl)-4,4a,5,6,7,8-hexahydro-1H-pyrazolo[3,4-g]isoquinolin-4a-yl)(thiazol-2-yl)methanone]: below 0.5 nM and 20 to 100 nM.
Consider `Cn1ccc(S(=O)(=O)N2CCC3=Cc4c(cnn4-c4ccc(F)cc4)C[C@]3(C(=O)c3cc(C(F)(F)F)ccn3)C2)n1` [Example 11BI, (R)-(1-(4-fluorophenyl)-6-((1-methyl-1H-pyrazol-3-yl)sulfonyl)-4,4a,5,6,7,8-hexahydro-1H-pyrazolo[3,4-g]isoquinolin-4a-yl)(4-(trifluoromethyl)pyridin-2-yl)methanone], for which the Ki in test [1] was below 0.5 nM; in test [2] it was below 20 nM.
In the same order, the values of `Cn1cc(S(=O)(=O)N2CCC3=Cc4c(cnn4-c4ccc(F)cc4)C[C@]3(C(=O)c3ccccn3)C2)cn1` [Example 2M, (R)-(1-(4-fluorophenyl)-6-((1-methyl-1H-pyrazol-4-yl)sulfonyl)-4,4a,5,6,7,8-hexahydro-1H-pyrazolo[3,4-g]isoquinolin-4a-yl)(pyridin-2-yl)methanone] are below 0.5 nM and 20 to 100 nM.
Consider `O=C(c1cscn1)[C@]12Cc3cnn(-c4ccc(F)cc4)c3C=C1CCN(S(=O)(=O)c1ccc(F)c(F)c1)C2` [Example 11BU, (R)-(6-((3,4-difluorophenyl)sulfonyl)-1-(4-fluorophenyl)-4,4a,5,6,7,8-hexahydro-1H-pyrazolo[3,4-g]isoquinolin-4a-yl)(thiazol-4-yl)methanone], for which the Ki was above 1 nM in test [1] and 20 to 100 nM in test [2].
Take `O=C(c1ccccn1)[C@]12Cc3cnn(-c4ccc(F)cc4)c3C=C1CCN(S(=O)(=O)c1ccccc1)C2` [Example 2K, (R)-(1-(4-fluorophenyl)-6-(phenylsulfonyl)-4,4a,5,6,7,8-hexahydro-1H-pyrazolo [3,4-g]isoquinolin-4a-yl)(pyridin-2-yl)methanone]: the Ki in test [1] was below 0.5 nM; in test [2] it was below 20 nM.
Consider `O=C(c1ccccn1)[C@]12Cc3cnn(-c4ccc(F)cc4)c3C=C1CCN(S(=O)(=O)c1cc(F)cc(F)c1)C2` [Example 11J, (R)-(6-((3,5-difluorophenyl)sulfonyl)-1-(4-fluorophenyl)-4,4a,5,6,7,8-hexahydro-1H-pyrazolo[3,4-g]isoquinolin-4a-yl)(pyridin-2-yl)methanone], for which the results for the Ki in test [1] and in test [2] were below 0.5 nM and below 20 nM, respectively.
In the same order, the values of `Cn1cc(S(=O)(=O)N2CCC3=Cc4c(cnn4-c4ccc(F)cc4)C[C@]3(C(=O)c3ccccn3)C2)c(C(F)(F)F)n1` [Example 11BP, (R)-(1-(4-fluorophenyl)-6-((1-methyl-3-(trifluoromethyl)-1H-pyrazol-4-yl)sulfonyl)-4,4a,5,6,7,8-hexahydro-1H-pyrazolo[3,4-g]isoquinolin-4a-yl)(pyridin-2-yl)methanone] are below 0.5 nM and at least 100 nM.
With `CCn1cc(S(=O)(=O)N2CCC3=Cc4c(cnn4-c4ccc(F)cc4)C[C@]3(C(=O)c3cc(C(F)(F)F)ccn3)C2)nn1` [Example 11CM, (R)-(6-((1-ethyl-1H-1,2,3-triazol-4-yl)sulfonyl)-1-(4-fluorophenyl)-4,4a,5,6,7,8-hexahydro-1H-pyrazolo[3,4-g]isoquinolin-4a-yl)(4-(trifluoromethyl)pyridin-2-yl)methanone], the Ki is below 0.5 nM in test [1] and below 20 nM in test [2].
The matching figures for `Cc1cccc(S(=O)(=O)N2CCC3=Cc4c(cnn4-c4ccc(F)cc4)C[C@]3(C(=O)c3cccc(C)n3)C2)c1` [Example 12H, (R)-(1-(4-fluorophenyl)-6-(m-tolylsulfonyl)-4,4a,5,6,7,8-hexahydro-1H-pyrazolo[3,4-g]isoquinolin-4a-yl)(6-methylpyridin-2-yl)methanone]: below 0.5 nM and below 20 nM.
In the same order, the values of `Cc1ccnc(C(=O)[C@]23Cc4cnn(-c5ccc(F)cc5)c4C=C2CCN(S(=O)(=O)c2cn(C)nc2C)C3)c1` [Example 11AQ, (R)-(6-((1,3-dimethyl-1H-pyrazol-4-yl)sulfonyl)-1-(4-fluorophenyl)-4,4a,5,6,7,8-hexahydro-1H-pyrazolo[3,4-g]isoquinolin-4a-yl)(4-methylpyridin-2-yl)methanone] are below 0.5 nM and 20 to 100 nM.
For `O=C(c1nccs1)[C@]12Cc3cnn(-c4ccc(F)cc4)c3C=C1CCN(S(=O)(=O)c1ccc(N3CCCC3)cc1)C2` [Example 6, (R)-(1-(4-fluorophenyl)-6-((4-(pyrrolidin-1-yl)phenyl)sulfonyl)-4,4a,5,6,7,8-hexahydro-1H-pyrazolo[3,4-g]isoquinolin-4a-yl)(thiazol-2-yl)methanone], the Ki in test [1] lay within 0.5 to 1 nM; in test [2], 20 to 100 nM.
As to `O=C(c1nccs1)[C@]12Cc3cnn(-c4ccc(F)cc4)c3C=C1CCN(S(=O)(=O)c1cncc(N3CCCC3)c1)C2` [Example 7A, (R)-(1-(4-fluorophenyl)-6-((5-(pyrrolidin-1-yl)pyridin-3-yl)sulfonyl)-4,4a,5,6,7,8-hexahydro-1H-pyrazolo[3,4-g]isoquinolin-4a-yl)(thiazol-2-yl)methanone], the Ki in test [1] is below 0.5 nM; in test [2], 20 to 100 nM.
As to `COc1cccc(S(=O)(=O)N2CCC3=Cc4c(cnn4-c4ccc(F)cc4)C[C@]3(C(=O)c3nccs3)C2)c1` [Example 12B, (R)-(1-(4-fluorophenyl)-6-((3-methoxyphenyl)sulfonyl)-4,4a,5,6,7,8-hexahydro-1H-pyrazolo[3,4-g]isoquinolin-4a-yl)(thiazol-2-yl)methanone], the Ki in test [1] lay in the range of 0.5 to 1 nM; in test [2], 20 to 100 nM.
With `Cc1ccc(C(=O)[C@]23Cc4cnn(-c5ccc(F)cc5)c4C=C2CCN(S(=O)(=O)c2cccc(C)c2)C3)nc1` [Example 12F, (R)-(1-(4-fluorophenyl)-6-(m-tolylsulfonyl)-4,4a,5,6,7,8-hexahydro-1H-pyrazolo [3,4-g]isoquinolin-4a-yl)(5-methylpyridin-2-yl)methanone], the Ki in test [1] is below 0.5 nM; in test [2], below 20 nM.
In the case of `O=C(c1nccs1)[C@]12Cc3cnn(-c4ccc(F)cc4)c3C=C1CCN(S(=O)(=O)CC1CCCO1)C2` (mixture of isomers) [Example 2B, ((4a R)-1-(4-fluorophenyl)-6-((((R/S)-tetrahydrofuran-2-yl)methyl)sulfonyl)-4,4a,5,6,7,8-hexahydro-1H-pyrazolo[3,4-g]isoquinolin-4a-yl)(thiazol-2-yl)methanone], the Ki in test [1] is 0.5 to 1 nM; in test [2] it was at least 100 nM.
In the case of `O=C(c1ccccn1)[C@]12Cc3cnn(-c4ccc(F)cc4)c3C=C1CCN(S(=O)(=O)c1ccc(N3CCCC3)nc1)C2` [Example 8, (R)-(1-(4-fluorophenyl)-6-((6-(pyrrolidin-1-yl)pyridin-3-yl)sulfonyl)-4,4a,5,6,7,8-hexahydro-1H-pyrazolo[3,4-g]isoquinolin-4a-yl)(pyridin-2-yl)methanone], the Ki was below 0.5 nM in test [1] and at least 100 nM in test [2].
Turning to `CCn1cc(S(=O)(=O)N2CCC3=Cc4c(cnn4-c4ccc(F)cc4)C[C@]3(C(=O)c3nccs3)C2)cn1` [Example 12X, (R)-(6-((1-ethyl-1H-pyrazol-4-yl)sulfonyl)-1-(4-fluorophenyl)-4,4a,5,6,7,8-hexahydro-1H-pyrazolo[3,4-g]isoquinolin-4a-yl)(thiazol-2-yl)methanone], the Ki was below 0.5 nM in test [1] and 20 to 100 nM in test [2].
As to `O=C(c1ccccn1)[C@]12Cc3cnn(-c4ccc(F)cc4)c3C=C1CCN(S(=O)(=O)c1ccc(N3CCCC3)cc1)C2` [Example 10, (R)-(1-(4-fluorophenyl)-6-((4-(pyrrolidin-1-yl)phenyl)sulfonyl)-4,4a,5,6,7,8-hexahydro-1H-pyrazolo[3,4-g]isoquinolin-4a-yl)(pyridin-2-yl)methanone], the results for the Ki in test [1] and in test [2] were below 0.5 nM and at least 100 nM, respectively.
For the compound `Cc1cccc(S(=O)(=O)N2CCC3=Cc4c(cnn4-c4ccc(F)cc4)C[C@]3(C(=O)c3nccn3C)C2)c1` [Example 13A, (R)-(1-(4-fluorophenyl)-6-(m-tolylsulfonyl)-4,4a,5,6,7,8-hexahydro-1H-pyrazolo [3,4-g]isoquinolin-4a-yl)(1-methyl-1H-imidazol-2-yl)methanone], the Ki in test [1] was below 0.5 nM; in test [2] it was 20 to 100 nM.
